From patent EP0405748A1, “Phosphonoderivative of purine with antiviral activity” (Beecham Group p.l.c., priority 1989, dated 1991)
Converted amounts (≈) assume the structure as drawn. Where two headings read alike, the source gives them in different places.

Assays:
Format in all cases: cell-based
HIV-1 strain virus = assay: HIV Suppression test in peripheral human lymphocytes (p24 ELISA and viral RNA hybridisation); settings: Human immunodeficiency virus 1, Lymphocyte; for inhibition at 1 µM: Concn. 1 µM; for inhibition at 10 µM: Concn. 10 µM
Experimental: Peripheral human lymphocytes were prepared, cultivated, and harvested as above. Following the determination of the lymphocyte surface markers, unstimulated and mitogen stimulated cells were combined in a ratio of 1:2.
Under safety conditions these cells are infected with a standard preparation of HIV. The cells are sedimented by centrifugation. The supernatant was discarded and cells were resuspended in the HIV inoculum.
This inoculum is a liquid suspension of HIV-1 strain virus, pretested and adjusted to a titer that results in a synthesis of viral core protein p24 of >100 ng/ml at day four following infection of human lymphocytes according to the protocol.
3x10⁸ lymphocytes were resuspended in 1 ml HIV inoculum and incubated at 37 °C for 60 minutes. Subsequently, the cells were washed two times with 50 ml of culture medium and resuspended in culture medium containing 10 units/ml of human recombinant interleukin-2 to yield a cell concentration of 2x10⁶ cells/ml. 100µl of this cell suspension was added to each well of the microtiter plates containing the diluted solutions of the compounds. The microtiter plates were cultivated in an incubator with a humidified atmosphere and 5% CO₂ at 37 °C.
Accordingly, a fraction of lymphocytes was mock-infected with the same virus preparation that was heat inactivated (30 minutes at 56 °C) prior to infection.
On each of the days 2,3 and 4 post infection one of the microtiter plates which had been established in triplicate was prepared for determination of viral replication. Viral RNA is determined within the cells whereas the viral core protein p24 was detected in the supernatant of the lymphocyte culture.
Accordingly, 150 µl of supernatant were removed from each well and transferred to the well of a microtiter plate containing 50 µl/well of SDS (sodium dodecylsulfate, 0.08%). These plates were stored frozen. 50 µl of stop solution (1% SDS, 20mM sodium acetate, pH 5.0, and 200 µg/ml heparin) were added to the cells remaining in each well. The plates were stored frozen.
The concentration of p24 synthesized by the HIV infected cells was determined by means of a sandwich ELISA, while the concentration of viral RNA was quantitated by nucleic acid hybridisation, using a ³²P-labelled DNA probe for the gag/pol region of the viral genome. Absolute levels of viral antigen and RNA in drug treated samples were compared with untreated, virus-infected controls and the percentage inhibition calculated.

[1] = tested on: cytomegalovirus (CMV; AD-169 strain); assay: Plaque Reduction Test for Cytomegalovirus; settings: Human betaherpesvirus 5, AD169, MRC5, MRC-5 cells, read-out: IC₅₀ against CMV
Experimental: MRC-5 cells were grown to confluence in 24 well multi-dishes (well diameter = 1.5cm). The drained cell monolayers were each infected with approximately 50 infectious particles of cytomegalovirus (CMV; AD-169 strain) in 100µl of phosphate-buffered saline. The virus wasadsorbed for 1 hour at room temperature. After adsorption, residual inoculum was removed from each well and replaced with 1ml of Eagle's MEM containing 10% heatinactivated foetal calf serum and 0.9% agarose (A37). Once the agarose had set, dilutions of the test compound, which had been prepared in Eagle's MEM (containing 10% heat-inactivated calf serum), wereadded, each well receiving 1ml of liquid overlay. The test compound was diluted to give the following series of concentrations: 200, 60, 20, 6....0.06µg/ml; final concentrations in the assay range, therefore, between 100µg/ml and 0.03µg/ml. The infected cultures were incubated at 37 °C in a humidified atmosphere containing 5% CO₂ until plaques were clearly visible (about 12days). The cultures are fixed in formol saline, the agarose overlays were carefully washed off, and then the cell monolayers were stained with carbol fuchsin. A stereo microscope was used to count plaques. The IC₅₀ (concentration of drug which inhibits the number of plaques formed by 50% relative to the number of plaques observed in virus control monolayers) of the test compound was calculated. In addition, the monolayers were examined for evidence of drug-induced cytotoxicity; the minimum concentration at which cytotoxicity occurs was recorded.

[2] = tested on: herpes simplex virus 2 (HSV-2; strain MS); assay: Plaque Reduction Test for Herpes Simplex Virus 2; settings: Human alphaherpesvirus 2, Vero or MRC-5 cells, read-out: IC₅₀ against HSV-2
Experimental: (§1) Vero or MRC-5 cells were grown to confluence in 24 well multi-dishes (well diameter = 1.5cm). The drained cell monolayers were each infected with approximately 50 infectious particles of herpes simplex virus 1 (HSV-1; HFEM strain) or herpes simplex virus 2 (HSV-2; strain MS) in 100µl of phosphate-buffered saline. The virus was adsorbed for 1 hour at room temperature. After adsorption, residual inoculum was removed from each well and replaced with 0.5ml of Eagle's MEM containing 5% newborn calf serum and 0.9% agarose (A37). Once the agarose had set, dilutions of the test compound, which had been prepared in Eagle's MEM (containing 5% newborn calf serum), were added, each well receiving 0.5ml of liquid overlay. The test compound was diluted to give the following series of concentrations: 200, 60, 20, 6....0.06µg/ml; final concentrations in the assay ranged, therefore, between 100µg/ml and 0.03µg/ml. The infected cultures were incubated at 37 °C in a humidified atmosphere of 5% CO₂ until plaques were clearly visible (2 or 3 days for Vero cells, usually 1 day for MRC-5 cells).
(§2) Cultures from 1 and 2 were fixed in formal saline, the agarose overlays were carefully washed off, and then the cell monolayers were stained with carbol fuchsin. A stereo microscope was used to count plaques. The IC₅₀ (concentration of drug which inhibits the number of plaques formed by 50% relative to the number of plaques observed in virus control monolayers) of the test compound was calculated. In addition, the monolayers were examined for evidence of drug-induced cytotoxicity; the minimum concentration at which cytotoxicity occurred was recorded.

[3] = tested on: herpes simplex virus 1 (HSV-1; HFEM strain); assay: Plaque Reduction Test for Herpes Simplex Virus 1; settings: Human alphaherpesvirus 1, Vero or MRC-5 cells, read-out: IC₅₀ against HSV-1 virus
Experimental: as §1, §2

[4] = tested on: varicella zoster virus (VZV; Ellen strain); assay: Plaque Reduction Test for Varicella Zoster Virus; settings: Human alphaherpesvirus 3, MRC5, MRC-5 cells, read-out: IC₅₀ against VZV
Experimental: MRC-5 cells were grown to confluence in 24 well multi-dishes (well diameter = 1.5cm). The drained cell monolayers were each infected with approximately 50 infectious particles of varicella zoster virus (VZV; Ellen strain) in 100µl of phosphate-buffered saline. The virus was adsorbed for 1 hour at room temperature. After adsorption, residual inoculum was removed from each well and replaced with 0.5ml of Eagle's MEM containing 5% heat-inactivated foetal calf serum and 0.9% agarose (A37). Once the agarose had set, dilutions of the test compound, which had been prepared in Eagle's MEM (containing 5% heat-inactivated foetal calf serum), were added, each well receiving 0.5ml of liquid overlay. The test compound was diluted to give the following series of concentrations: 200, 60, 20, 6....0.06µg/ml; final concentrations in the assay ranged, therefore, between 100µg/ml and 0.03µg/ml. The infected cultures were incubated at 37 °C in a humidified atmosphere of 5% CO₂ until plaques were clearly visible (5 or 6 days).
as §2

[5] = 72 h, viral RNA, Day 3 after infection, read-out: % Inhibition on Days 3 and 4 after infection Viral RNA Day 3
[6] = 72 h, viral core protein p24, Day 3 after infection, read-out: % Inhibition on Days 3 and 4 after infection Viral Anitgen Day 3
[7] = 96 h, viral RNA, Day 4 after infection, read-out: % Inhibition on Days 3 and 4 after infection Viral RNA Day 4
[8] = 96 h, viral core protein p24, Day 4 after infection, read-out: % Inhibition on Days 3 and 4 after infection Viral Anitgen Day 4

| SMILES | inhibition at 1 µM (HIV-1 strain virus; [5]) | inhibition at 1 µM (HIV-1 strain virus; [6]) | inhibition at 1 µM (HIV-1 strain virus; [7]) | inhibition at 1 µM (HIV-1 strain virus; [8]) | IC50 [1] | IC50 [2] | IC50 [3] | IC50 [4] | inhibition at 10 µM (HIV-1 strain virus; [5]) | inhibition at 10 µM (HIV-1 strain virus; [6]) | inhibition at 10 µM (HIV-1 strain virus; [7]) | inhibition at 10 µM (HIV-1 strain virus; [8]) |
| --- | --- | --- | --- | --- | --- | --- | --- | --- | --- | --- | --- | --- |
| Nc1nc2c(ncn2OC[C@@H](CO)OCP(=O)(O)O)c(=O)[nH]1 [Example 1, (R)-9-[3-Hydroxy-2-(phosphonomethoxy)propoxy]quanine] | 73% | 100% | 54% | 35% | 3 µg/mL (≈ 8.95 µM) | 10 µg/mL (≈ 29.8 µM) | 7 µg/mL (≈ 20.9 µM) | 17 µg/mL (≈ 50.7 µM) | – | – | – | – |
| Nc1nc2c(ncn2OC[C@H]2COP(=O)(O)CO2)c(=O)[nH]1 [Example 2, (S)-9-[(2-Hydroxy-2-oxo-1,4,2-dioxaphosphorinan-5-yl)methoxy]quanine] | – | – | – | – | 3 µg/mL (≈ 9.46 µM) | 15 µg/mL (≈ 47.3 µM) | 21 µg/mL (≈ 66.2 µM) | 13 µg/mL (≈ 41 µM) | 92% | 100% | 32% | 33% |
| Nc1ncnc2c1ncn2OC[C@@H](CO)OCP(=O)(O)O [Example 3, (R)-9-[3-Hydroxy-2-(phosphonomethoxy)propoxy]adenine] | – | – | – | – | – | – | – | – | 83% | 80% | 90% | 91% |
| Nc1nc2c(ncn2OC[C@H](CO)OCP(=O)(O)O)c(=O)[nH]1 [Example 4, (S)-9-[3-Hydroxy-2-(phosphonomethoxy)propoxy]quanine] | 10% | 54% | 14% | 15% | 29 µg/mL (≈ 86.5 µM) | 23 µg/mL (≈ 68.6 µM) | 25 µg/mL (≈ 74.6 µM) | 52 µg/mL (≈ 155 µM) | – | – | – | – |
| Nc1nc2c(ncn2OC[C@@H]2COP(=O)(O)CO2)c(=O)[nH]1 [Example 5, (R)-9-[(2-Hydroxy-2-oxo-1,4,2-dioxaphosphorinan-5-yl)methoxy]quanine] | – | – | – | – | 17 µg/mL (≈ 53.6 µM) | 36 µg/mL (≈ 113 µM) | 73 µg/mL (≈ 230 µM) | 24 µg/mL (≈ 75.7 µM) | 64% | 50% | 0% | 7% |
